Assays:
[1] = system: MDA-MB-231 cells; test: Migration test on MDA-MB-231 cells (scratch test); format: cell-based, human; details: 10, 50 and 100 μM, 18 h migration, FIG. 10
Description: Cell migration assays on the MDA-MB-231 cell line are performed in vitro in 96-well plates. The MDA-MB-231 cells were seeded at the density of 50000 cells per well, to form a monolayer. The cells are maintained in a DMEM culture medium supplemented with 0.2% fetal calf serum and incubated at 37° C., 5% CO2 and 1% O2 for 24 hours. The cell monolayer is injured with a pipette tip. The cells are then rinsed with PB S to remove the cells in suspension and the different treatments are added, as well as DMEM supplemented with 10% FCS. The cells are incubated for 18 hours at 37° C., 5% CO2 and 20% O2.
A first series of images of each well (center of the well) was carried out at the beginning of the experiment (t=0) and after 18 hours of migration (t=18) using a 4× objective Nikon microscope. The images were analyzed using ImageJ software (National Institutes of Health, USA).
The treatments were carried out in triplicate and the manipulation was carried out 3 times. […]
A first series of images of each well (center of the well) is performed at the beginning of the experiment (t=0) and after 18 h of migration (t=18) using a Nikon microscope −4× lens. The images were analyzed using Image J software (National Institute of Health, USA)

[2] = Solubilization of althiazide and enantiomers without DMSO; format: physicochemical; details: no DMSO
Description: Solubilization of althiazide and enantiomers was achieved by solubilization in a solvent of 95% 1M Tris pH 10.8 and supplemented with 5% pure ethanol.
Althiazide and enantiomers are resuspended at a concentration of 2 mg/ml. Each of the solutions is vortexed for 30 seconds and then placed in an ultrasound bath for a sonication of 5min; this operation is repeated once. The dissolution is complete despite the absence of DMSO.
The solubilization of althiazide and enantiomers was also obtained by solubilization in a solution consisting of a mixture of 3.7% of NaHCO3, 0.2M and 21% of Na2CO3 0.2M at pH 10.6 and supplemented with pure water. Althiazide and enantiomers are resuspended at a concentration of 2.5 mg/ml. Each of the solutions is vortexed for 30 seconds and then placed in an ultrasound bath for a sonication of 1 min. The dissolution is complete despite the absence of DMSO.

[3] = system: VIMENTIN; test: q-RT-PCR expression of EMT markers in MDA-MB-231 cells under hypoxia: VIMENTIN; format: cell-based, human; details: althiazide 100 μM, hypoxic conditions (1% O2), vs control, FIG. 11
Description: (§1) The cell cultures are carried out on human breast cancer epithelial cell lines MDA-MB-231 (HTB-26™), resulting from metastases present in a pleural effusion of a patient with a mammary adenocarcinoma. This line is used as a triple negative cancer cell model (no expression of ER-type nuclear estrogen receptors, nuclear progesterone receptors or overexpression of the oncogene encoding HER2 protein (Human Epidermal Growth factor Receptor-2).
(§2) The cells were cultured in DMEM medium (Eurobio, Fance) supplemented with 10% fetal calf serum (FCS) (Eurobio, Fance) at 37° C., 5% CO2. The medium was changed every 3 days.
(§3) The cells were placed in a controlled atmosphere at 1% oxygen 24 hours before the application of the different treatments.
(§4) The expression of the mRNAs is measured by the q-RT-PCR method. The cells were seeded at the density of 500,000 cells/well in 6-well plates. After 24 hours at 37° C., 5% CO2 and 1% O2, the medium was renewed and added the various treatments. RNA was isolated using TRI Reagent® (sigma), assayed and retro-transcribed into complementary DNA using the PrimeScript RT Reagent Kit (Takara). The expression levels of the mRNA of the genes of interest were determined by quantitative PCR (LightCycler® 480 Instrument II) with the primers listed in Table 2: […]
(§5) The results are calculated using the Delta Delta Ct (Δ ΔCt) method.

[4] = system: ZEB1; test: q-RT-PCR expression of EMT markers in MDA-MB-231 cells under hypoxia: ZEB1; format: cell-based, human; details: althiazide 100 μM, hypoxic conditions (1% O2), vs control, FIG. 11
Description: as §1, §2, §3, §4, §5

C=CCSCC1Nc2cc(Cl)c(S(N)(=O)=O)cc2S(=O)(=O)N1 (racemic) [althiazide]
decrease of the migration [1]: ~50% | dissolution ([2]; 2 mg/ml in 95% 1M Tris pH 10.8 + 5% pure ethanol, vortex and sonication): complete | dissolution ([2]; 2.5 mg/ml in 3.7% NaHCO3 0.2M + 21% Na2CO3 0.2M at pH 10.6 and pure water): complete | change in expression of VIMENTIN [3]: −22% | change in expression of ZEB1 [4]: −14%

Source: patent US20230137849A1, “USE OF A COMPOUND OF THE DIURETICS CLASS FOR TREATING CANCER” (AZELEAD, priority 2017, published 2023)
